± gives the expanded uncertainty stated by the source. Values belong to the compound of their own block, whether it stands above or below them.
Assays:
[1] = 298.15 K; 101.33 kPa; Liquid
[2] = excess molar enthalpy (molar enthalpy of mixing); xn = mol fraction of the nth substance listed; conditions: 298.15 K, 101 kPa, Liquid, Flow calorimetry

Structure (SMILES): CC1CCCO1 (stereo not drawn) [2-methyltetrahydrofuran]
mass density [1]: 848.1 ± 0.89 kg/m3

Structure (SMILES): COC(C)(C)C [2-methoxy-2-methylpropane]
mass density [1]: 735.99 ± 0.74 kg/m3

More lines, now with the values ahead:

mass density [1]: 882.09 ± 0.8 kg/m3
Structure (SMILES): C1CCOC1 [tetrahydrofuran]

mass density [1]: 668.73 ± 1.4 kg/m3
Structure (SMILES): C=CCCCC [hex-1-ene]

excess molar enthalpy ([2]; x1 = 0.0501): 0.0161 ± 0.000454 kcal/mol
excess molar enthalpy ([2]; x1 = 0.097): 0.0304 ± 0.000669 kcal/mol
excess molar enthalpy ([2]; x1 = 0.1507): 0.0446 ± 0.000884 kcal/mol
excess molar enthalpy ([2]; x1 = 0.1994): 0.055 ± 0.00105 kcal/mol
excess molar enthalpy ([2]; x1 = 0.2501): 0.0649 ± 0.00122 kcal/mol
excess molar enthalpy ([2]; x1 = 0.3003): 0.0729 ± 0.00136 kcal/mol
excess molar enthalpy ([2]; x1 = 0.3499): 0.0788 ± 0.00146 kcal/mol
excess molar enthalpy ([2]; x1 = 0.3999): 0.0834 ± 0.00153 kcal/mol
excess molar enthalpy ([2]; x1 = 0.45): 0.0859 ± 0.00158 kcal/mol
excess molar enthalpy ([2]; x1 = 0.4977): 0.0876 ± 0.0016 kcal/mol
excess molar enthalpy ([2]; x1 = 0.5494): 0.0869 ± 0.0016 kcal/mol
excess molar enthalpy ([2]; x1 = 0.6006): 0.0844 ± 0.00155 kcal/mol
excess molar enthalpy ([2]; x1 = 0.649): 0.0807 ± 0.00148 kcal/mol
excess molar enthalpy ([2]; x1 = 0.6905): 0.0761 ± 0.00141 kcal/mol
excess molar enthalpy ([2]; x1 = 0.7499): 0.0675 ± 0.00127 kcal/mol
excess molar enthalpy ([2]; x1 = 0.7999): 0.0587 ± 0.00112 kcal/mol
excess molar enthalpy ([2]; x1 = 0.8501): 0.0471 ± 0.000932 kcal/mol
excess molar enthalpy ([2]; x1 = 0.8995): 0.0335 ± 0.000717 kcal/mol
excess molar enthalpy ([2]; x1 = 0.95): 0.018 ± 0.000478 kcal/mol
Structure (SMILES): C=CCCCC [hex-1-ene] + C1CCOC1
